The values that follow are results of earlier work, collected in patent US11873519B2, “Composition for preventing age-related metabolic and tissue degenerative changes” (priority 2017, dated 2024).

The subject of this series is Ewing's sarcoma PDOX.

For “L-methionine α-deamino-γ-mercaptomethane lyase [rMETase]”, the “Serum and tumor MET levels versus controls” value is reported as “lower”; the “Tumor growth compared to untreated control mice” value is listed as “effectively reduced tumor growth”.
